The values that follow come from paper PMC7033278, “A Nonpeptide Oxytocin Receptor Agonist for a Durable Relief of Inflammatory Pain” (Scientific Reports, 2020).

pIC50: −log10 of the molar value.

In one data set the target is T1, CYP 2C19 (Homo sapiens, UniProt P33261).
T1 construct: phosphate buffer containing human liver microsomes (0.2 mg/ml); from tissue; host or cells: human liver microsomes
The data set can be described thus: cytochrome inhibition, human liver microsomes. The data set is classed as in vitro ADME. As for the experimental part:
(§1) Cytochrome inhibition by LIT-001 was studied as follows. A stock solution of LIT-001 at 10 mM in DMSO was prepared and stored at 4 °C. Solutions containing the cytochrome substrates and control inhibitors or LIT-001 were prepared. 2 μl of substrate-inhibitor solutions were mixed with 176 μl of phosphate buffer containing human liver microsomes (0.2 mg/ml), 1 mM of NADPH and 3 mM of MgCl2. Height concentrations were tested: 0.03; 0.1; 0.3; 1; 3; 10; 30 and 100 μM. The reaction was initiated by addition of the co-factor after 5 min of incubation at 37 °C. After one hour of incubation, 200 μl of acetonitrile were added to stop enzymatic reactions and solubilize the products. Different control inhibitors were used and supernatants were analyzed by LC-MS/MS (UHPLC separation; Shimadzu LC-MS 8030). • Furafylline (CYP 1A2 inhibitor): 0.03; 0.1; 0.3; 1; 3; 10; 30 and 100 μM • Sulfaphenazole (CYP 2C9 inhibitor): 0.03; 0.1; 0.3; 1; 3; 10; 30 and 100 μM • Tranylcypromine (CYP 2C19 inhibitor): 0.03; 0.1; 0.3; 1; 3; 10; 30 and 100 μM • Quinidine (CYP […] inhibitor): 0.003; 0.01; 0.1; 0.5; 1; 5; 10 and 50 μM • Kétoconazole (CYP 3A4 inhibitor): 0.003; 0.01; 0.1; 0.5; 1; 5; 10 and 50 μM

The target of the next data set is T2, CYP 1A2 (Homo sapiens, UniProt P05177).
T2 construct: phosphate buffer containing human liver microsomes (0.2 mg/ml); from tissue; host or cells: human liver microsomes
The data set can be described thus: cytochrome inhibition, human liver microsomes. The data set is classed as in vitro ADME. As for the experimental part: as §1
For orientation: Liver microsomes are a subcellular fraction often used to study metabolism.

A further data set deals with T3, CYP 3A4 (Homo sapiens, UniProt P08684).
T3 construct: phosphate buffer containing human liver microsomes (0.2 mg/ml); from tissue; host or cells: human liver microsomes
The data set is described as follows: cytochrome inhibition, human liver microsomes. It is filed as in vitro ADME. As for the experimental part:
as §1

In the next data set the target is T4, CYP 2C9 (Homo sapiens, UniProt P11712).
T4 construct: phosphate buffer containing human liver microsomes (0.2 mg/ml); from tissue; host or cells: human liver microsomes
The data set is described as follows: cytochrome inhibition, human liver microsomes. It is filed as in vitro ADME. The settings on record: 0.03-100 μM. As for the experimental part: as §1

For the next data set, the target named is T5, CYP 2D6 (Homo sapiens, UniProt P10635).
T5 construct: phosphate buffer containing human liver microsomes (0.2 mg/ml); from tissue; host or cells: human liver microsomes
The data set can be described thus: cytochrome inhibition, human liver microsomes. The settings on record: 0.03-100 μM. It is filed as in vitro ADME. As for the experimental part:
as §1

In a further data set the target is T6, Lck kinase (Homo sapiens, UniProt P06239).
T6 construct: Eurofins (contract assay)
The data set can be described thus: enzyme inhibition. It is filed as biochemical. The following applies: range given for five enzymes together, below significance. As for the experimental part:
(§2) In vitro profiling of LIT-001 was performed by Eurofins as described in the Eurofins SafetyScreen-Functional panel, 2018[31]. The hepatotoxicity of LIT-001 was studied with cryo-preserved mouse hepatocytes. After unfreezing (optiTHAW and optiINCUBATE media, Xenotech) and cell viability control, cells (2 × 10^6 cells/ml) were dispatched in 96 well microtiterplates. LIT-001 was added to reach a concentration 1 μM in the presence of 1 × 10^6 cells/mL in a volume of 100 μl/well. The incubation was stopped at 4, 20, 40, 80 and 120 min in adding 100 μl of acetonitrile at 0 °C. A positive control was treated in the same conditions. All samples were analyzed by UHPLC coupled to a mass spectrometer (Shimadzu LC-MS 8030).

A further data set has as its target T7, acetylcholinesterase (Homo sapiens, UniProt P22303).
T7 construct: Eurofins (contract assay)
The data set is described as follows: enzyme inhibition. The data set is classed as biochemical. The following applies: range given for five enzymes together, below significance. The procedure: as §2

For data set [1], the target named is T8, MAO-A from human placenta (Homo sapiens, UniProt P21397).
T8 construct: MAO-A from human placenta; tissue Eurofins (contract assay); host or cells: human placenta
The data set is described as follows: enzyme inhibition. It is filed as biochemical. The settings on record: range given for five enzymes together, below significance. As for the experimental part:
as §2

For another data set, the target named is T9, human recombinant COX(1) (Homo sapiens, UniProt P23219).
T9 construct: Eurofins (contract assay)
The data set can be described thus: enzyme inhibition. It is filed as biochemical. The settings on record: range given for five enzymes together, below significance. As for the experimental part:
as §2

Another data set concerns the target T10, PDE3A (Homo sapiens, UniProt Q14432).
T10 construct: Eurofins (contract assay)
The data set can be described thus: enzyme inhibition. It is filed as biochemical. The settings on record: range given for five enzymes together, below significance. As for the experimental part: as §2

Another data set addresses T11, COX(2) (Homo sapiens, UniProt P35354).
T11 construct: Eurofins (contract assay)
The data set is described as follows: enzyme inhibition. The data set is classed as biochemical. The procedure:
as §2

The target in another data set is T12, PDE4D2 (Homo sapiens, UniProt Q08499).
T12 construct: Eurofins (contract assay)
The data set can be described thus: enzyme inhibition. It is filed as biochemical. As for the experimental part: as §2

In data set [2] the test system is CFA-induced thermal heat hyperalgesia. The data set can be described thus: thermal heat sensitivity, Plantar test (Hargreaves), CFA model. It is filed as in vivo. The following applies: rat. The procedure: LIT-001 was prepared as described in Frantz et al.[20]. For in vivo biological assays, it was dissolved in carboxymethyl cellulose (CMC, 1%) - NaCl (0.9%) and administered at the dose of 10 mg/kg. LIT-001 or vehicle were injected intraperitoneally (i.p.), in a volume of 10 ml/kg[20], 24 h after the induction of the CFA-induced painful inflammatory sensitization. To confirm the implication of the OTR we injected (i.p.) also L-368,899 (Sigma, St. Louis, MO) (1 mg/kg), an OTR antagonist, in combination with LIT-001 in another group of rats[11].
Male Wistar rats (300 g; JANVIER LABS, Le Genest St. Isle, France) were used for this study. They were housed by groups of 3 or 4 under standard conditions (room temperature, 22 °C; 12/12 h light/dark cycle) with ad libitum access to food and water and behavioral enrichment. All animals were manipulated and habituated to the tests and to the room for at least 2 weeks. All behavioral tests were done during the light period (i.e., between 7:00 and 19:00). All the procedures were performed in accordance with European committee council Direction, authorization from French Department of Agriculture and from the regional ethic committee.
To test the animal heat sensitivity, we used the Plantar test with Hargreaves method (Ugo Basile, Comerio, Italy) to compare the response of each hindpaw[33] when we tested healthy animals (unilateral intraplantar NaCl injection) and animals having received unilateral intraplantar CFA (Freund’s Complete Adjuvant) injection. The habituated rat is placed in a small box and we wait until the animal is calmed then we exposed the hindpaw to a radiant heat, the latency time of paw withdrawal was measured.
In order to induce a peripheral inflammation, 100 μl of complete Freund adjuvant (CFA; Sigma, St. Louis, MO), was injected in the right hindpaw of the rat. All CFA injections were performed under light isoflurane anesthesia (3%).

The subject of data set [3] is V2 vasopressin receptor (V2R). The arrangement: method as in PMID 30199637. The settings on record: cited from earlier work.
The next data set concerns 24 off-target GPCRs. The data set is described as follows: Eurofins SafetyScreen functional panel, GPCR agonist and antagonist profile. It is filed as cell-based. The following applies: 5 μM, 24 GPCRs. The procedure:
as §2

[4] abbreviates: i.p., D1 after CFA, measured 1 hour after injection.

T7 sequence (P22303 32-614): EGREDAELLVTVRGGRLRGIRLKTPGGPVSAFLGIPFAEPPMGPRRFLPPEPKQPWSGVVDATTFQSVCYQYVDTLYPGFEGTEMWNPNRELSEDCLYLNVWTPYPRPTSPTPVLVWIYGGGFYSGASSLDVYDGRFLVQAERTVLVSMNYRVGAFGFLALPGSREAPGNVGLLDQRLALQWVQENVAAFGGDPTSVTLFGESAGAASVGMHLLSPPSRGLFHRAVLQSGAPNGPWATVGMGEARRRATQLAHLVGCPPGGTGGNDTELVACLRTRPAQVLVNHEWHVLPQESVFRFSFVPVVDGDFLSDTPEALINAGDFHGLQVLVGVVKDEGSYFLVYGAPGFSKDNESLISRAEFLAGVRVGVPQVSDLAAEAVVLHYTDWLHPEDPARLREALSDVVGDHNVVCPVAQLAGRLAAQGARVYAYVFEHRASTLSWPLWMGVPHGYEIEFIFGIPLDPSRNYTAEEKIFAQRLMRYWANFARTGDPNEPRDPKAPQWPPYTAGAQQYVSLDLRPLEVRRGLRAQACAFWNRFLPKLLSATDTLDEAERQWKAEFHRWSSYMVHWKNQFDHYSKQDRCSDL
T3 sequence (P08684 whole entry): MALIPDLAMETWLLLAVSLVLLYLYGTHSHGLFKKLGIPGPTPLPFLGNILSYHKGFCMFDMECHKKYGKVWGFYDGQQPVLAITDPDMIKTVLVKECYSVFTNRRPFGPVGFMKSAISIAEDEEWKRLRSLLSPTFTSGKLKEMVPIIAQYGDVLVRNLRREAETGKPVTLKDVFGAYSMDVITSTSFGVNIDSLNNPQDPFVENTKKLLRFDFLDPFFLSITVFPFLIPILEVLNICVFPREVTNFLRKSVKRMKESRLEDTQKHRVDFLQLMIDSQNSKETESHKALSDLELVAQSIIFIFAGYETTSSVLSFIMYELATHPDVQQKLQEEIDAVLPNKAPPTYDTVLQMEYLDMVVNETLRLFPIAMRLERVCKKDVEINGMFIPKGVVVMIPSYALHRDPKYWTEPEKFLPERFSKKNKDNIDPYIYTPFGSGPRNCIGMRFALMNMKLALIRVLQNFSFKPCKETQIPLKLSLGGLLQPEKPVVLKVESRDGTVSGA
T6 sequence (P06239 whole entry): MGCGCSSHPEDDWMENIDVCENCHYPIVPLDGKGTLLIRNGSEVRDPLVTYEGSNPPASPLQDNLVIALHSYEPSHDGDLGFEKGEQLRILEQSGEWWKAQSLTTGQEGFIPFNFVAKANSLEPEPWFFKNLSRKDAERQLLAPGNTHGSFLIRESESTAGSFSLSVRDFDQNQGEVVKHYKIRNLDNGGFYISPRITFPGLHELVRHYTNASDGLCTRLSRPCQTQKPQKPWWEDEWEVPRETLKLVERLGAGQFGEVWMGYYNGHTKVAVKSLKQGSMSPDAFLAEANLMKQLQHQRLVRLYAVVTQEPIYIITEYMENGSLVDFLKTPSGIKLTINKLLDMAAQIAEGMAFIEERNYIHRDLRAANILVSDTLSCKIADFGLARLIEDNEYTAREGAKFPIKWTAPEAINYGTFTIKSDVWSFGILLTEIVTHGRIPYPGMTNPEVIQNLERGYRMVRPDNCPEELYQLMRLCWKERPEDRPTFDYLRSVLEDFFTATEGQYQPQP
T1 sequence (P33261 whole entry): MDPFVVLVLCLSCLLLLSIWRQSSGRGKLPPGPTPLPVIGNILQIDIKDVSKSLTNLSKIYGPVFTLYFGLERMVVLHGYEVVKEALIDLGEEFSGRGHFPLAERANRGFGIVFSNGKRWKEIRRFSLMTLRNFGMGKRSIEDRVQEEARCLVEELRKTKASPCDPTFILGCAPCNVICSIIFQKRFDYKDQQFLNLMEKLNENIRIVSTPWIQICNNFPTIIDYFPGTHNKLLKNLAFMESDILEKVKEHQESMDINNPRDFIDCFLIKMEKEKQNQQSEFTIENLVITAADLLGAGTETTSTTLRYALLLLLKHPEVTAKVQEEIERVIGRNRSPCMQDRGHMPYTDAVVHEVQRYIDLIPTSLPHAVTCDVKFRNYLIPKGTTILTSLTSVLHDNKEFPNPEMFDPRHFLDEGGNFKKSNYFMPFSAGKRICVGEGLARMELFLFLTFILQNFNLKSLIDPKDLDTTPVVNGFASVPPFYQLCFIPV
T12 sequence (Q08499 303-809): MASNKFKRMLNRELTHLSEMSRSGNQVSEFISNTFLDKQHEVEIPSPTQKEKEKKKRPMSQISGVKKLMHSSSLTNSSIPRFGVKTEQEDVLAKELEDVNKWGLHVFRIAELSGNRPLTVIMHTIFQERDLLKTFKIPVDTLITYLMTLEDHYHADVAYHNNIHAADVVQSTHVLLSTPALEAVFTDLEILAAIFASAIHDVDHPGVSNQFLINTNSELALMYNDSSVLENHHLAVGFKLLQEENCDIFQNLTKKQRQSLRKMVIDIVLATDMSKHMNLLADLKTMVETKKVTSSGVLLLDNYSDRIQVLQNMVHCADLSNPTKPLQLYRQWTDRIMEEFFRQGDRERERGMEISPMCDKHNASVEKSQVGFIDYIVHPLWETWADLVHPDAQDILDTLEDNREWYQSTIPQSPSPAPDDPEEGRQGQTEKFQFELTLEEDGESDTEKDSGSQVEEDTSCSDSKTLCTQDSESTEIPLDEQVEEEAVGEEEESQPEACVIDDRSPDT
T11 sequence (P35354 18-604): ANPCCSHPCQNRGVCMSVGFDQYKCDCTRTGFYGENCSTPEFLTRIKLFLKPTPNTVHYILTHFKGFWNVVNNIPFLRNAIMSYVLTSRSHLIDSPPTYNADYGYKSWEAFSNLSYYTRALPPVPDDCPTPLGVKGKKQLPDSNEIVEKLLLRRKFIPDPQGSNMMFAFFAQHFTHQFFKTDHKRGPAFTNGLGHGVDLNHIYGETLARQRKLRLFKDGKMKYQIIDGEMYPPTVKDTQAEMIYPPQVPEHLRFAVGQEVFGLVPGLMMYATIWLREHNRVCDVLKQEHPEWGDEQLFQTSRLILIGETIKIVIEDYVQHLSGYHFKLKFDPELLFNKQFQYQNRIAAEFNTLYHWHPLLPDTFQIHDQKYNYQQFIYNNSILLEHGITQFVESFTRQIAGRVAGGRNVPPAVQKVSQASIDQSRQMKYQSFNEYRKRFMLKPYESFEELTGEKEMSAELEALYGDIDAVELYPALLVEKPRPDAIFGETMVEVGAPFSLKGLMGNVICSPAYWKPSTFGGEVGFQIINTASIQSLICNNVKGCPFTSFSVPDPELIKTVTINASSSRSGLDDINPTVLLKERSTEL
T10 sequence (Q14432 whole entry): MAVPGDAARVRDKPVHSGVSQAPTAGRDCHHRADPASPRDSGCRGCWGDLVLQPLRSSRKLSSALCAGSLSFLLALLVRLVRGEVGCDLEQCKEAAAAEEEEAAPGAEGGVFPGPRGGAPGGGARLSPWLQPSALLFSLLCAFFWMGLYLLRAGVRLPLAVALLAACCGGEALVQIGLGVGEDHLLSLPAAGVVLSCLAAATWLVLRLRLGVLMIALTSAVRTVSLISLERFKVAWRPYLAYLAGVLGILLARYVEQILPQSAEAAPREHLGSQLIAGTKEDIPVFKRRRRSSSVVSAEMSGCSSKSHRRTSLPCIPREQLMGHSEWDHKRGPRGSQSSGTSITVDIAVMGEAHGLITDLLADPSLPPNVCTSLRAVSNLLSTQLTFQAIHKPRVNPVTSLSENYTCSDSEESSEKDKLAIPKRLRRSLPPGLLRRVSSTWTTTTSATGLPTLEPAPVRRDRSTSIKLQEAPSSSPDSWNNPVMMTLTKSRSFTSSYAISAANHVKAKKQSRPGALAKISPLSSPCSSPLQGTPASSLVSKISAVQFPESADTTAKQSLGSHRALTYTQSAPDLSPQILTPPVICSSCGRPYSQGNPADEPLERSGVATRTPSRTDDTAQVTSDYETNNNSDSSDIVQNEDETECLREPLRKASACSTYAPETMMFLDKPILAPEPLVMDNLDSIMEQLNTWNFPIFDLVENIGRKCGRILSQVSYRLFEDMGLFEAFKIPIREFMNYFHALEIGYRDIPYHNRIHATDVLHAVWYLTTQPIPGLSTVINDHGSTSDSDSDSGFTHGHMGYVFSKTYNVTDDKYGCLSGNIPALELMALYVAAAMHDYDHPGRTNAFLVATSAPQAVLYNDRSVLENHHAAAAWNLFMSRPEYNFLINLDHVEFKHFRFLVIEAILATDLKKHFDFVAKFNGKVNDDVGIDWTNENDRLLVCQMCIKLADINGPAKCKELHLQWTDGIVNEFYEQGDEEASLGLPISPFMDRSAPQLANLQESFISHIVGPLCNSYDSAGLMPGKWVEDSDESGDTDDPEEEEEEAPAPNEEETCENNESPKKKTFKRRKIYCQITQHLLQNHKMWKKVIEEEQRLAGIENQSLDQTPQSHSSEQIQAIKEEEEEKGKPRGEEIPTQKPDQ
T2 sequence (P05177 whole entry): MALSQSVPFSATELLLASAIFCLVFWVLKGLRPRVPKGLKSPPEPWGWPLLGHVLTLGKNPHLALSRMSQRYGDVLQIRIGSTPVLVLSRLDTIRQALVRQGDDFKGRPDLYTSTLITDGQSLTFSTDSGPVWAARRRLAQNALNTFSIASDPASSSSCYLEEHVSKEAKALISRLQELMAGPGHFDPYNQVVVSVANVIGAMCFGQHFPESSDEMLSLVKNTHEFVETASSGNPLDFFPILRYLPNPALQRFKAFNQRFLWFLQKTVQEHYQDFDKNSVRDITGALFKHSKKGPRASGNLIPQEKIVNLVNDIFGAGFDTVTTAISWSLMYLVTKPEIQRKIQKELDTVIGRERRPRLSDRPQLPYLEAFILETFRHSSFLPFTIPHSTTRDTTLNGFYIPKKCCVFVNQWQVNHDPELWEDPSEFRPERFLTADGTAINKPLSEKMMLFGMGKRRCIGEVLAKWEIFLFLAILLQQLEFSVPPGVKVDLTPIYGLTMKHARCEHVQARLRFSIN

Turning to `Cc1cc(C(=O)N2Cc3cnn(C)c3Nc3ccccc32)ccc1CNC(=O)N1CCC[C@H]1C(=S)N(C)C` [LIT-001], the figures for the pIC50 against CYP 2C19, on CYP 1A2 and on CYP 3A4 were 4.68, 4.29 and 4.96, respectively. On CYP 2C9, the “interaction with CYP 2C9” value is on record as “did not interact”. Besides, the “interaction with CYP 2D6” value at CYP 2D6 is recorded as “did not interact”. Further, the inhibition at 5 µM was 6.4 to 9.5% against Lck kinase; 6.4 to 9.5% against acetylcholinesterase; 6.4 to 9.5% in [1]; 6.4 to 9.5% at human recombinant COX(1); 6.4 to 9.5% against PDE3A; 24.6% on COX(2). Besides, testing at 5 µM against PDE4D2 gave an inhibition of 23.1%. For the same molecule, the “thermal heat latency, NaCl-injected hindpaw (control animals)” value in data set [2] (10 mg/kg i.p.) worked out at 8.14 ± 0.48 s. Further, in [2] (10 mg/kg i.p.), the “thermal heat latency, hindpaw contralateral to CFA (cCFA)” value is listed as 11 ± 0.53 s. For the same molecule, in data set [2] (i.p. LIT-001 10 mg/kg at D1 after CFA), the “relative-to-baseline AUC, thermal heat latency, CFA-injected hindpaw” value was 135 ± 9%. The “thermal heat withdrawal latency, CFA-injected hindpaw” value in data set [2] (i.p. LIT-001 10 mg/kg at D1 after CFA, 3 h post i.p.) was found to be 5.83 ± 0.65 s. Besides, the “dose at which analgesic effect reaches a plateau, thermal heat hypersensitivity” value in data set [2] (setting [4]) came out at 10 mg/kg. In addition, in [2] (setting [4]), the “dose of first analgesic action, thermal heat hypersensitivity” value is 5 mg/kg. Moreover, the “V2R agonism in functional assays” value in data set [3] is “potent V2R agonist”. Besides, the “agonist or antagonist activity at GPCRs” value in the data set with 24 off-target GPCRs is reported as “No significant agonist or antagonist”.

As a reminder, the pIC50 is −log10 of the IC50, conventionally taken in molar units. A lower pIC50 goes with a large IC50. Broadly, the inhibition is the percentage by which the read-out fell short of the control.
